# Measurements: article PMC9740910, “Influence of Degree of Polymerization of Low-Molecular-Weight Chitosan Oligosaccharides on the α-Glucosidase Inhibition” (Molecules, 2022)
# Biological target: Saccharomyces cerevisiae α-glucosidase (Saccharomyces cerevisiae, UniProt P53341)
# Assay: Inhibition kinetic of α-glucosidase (Lineweaver–Burk and Michaelis–Menten fits)
# Type: biochemical
# Experimental: The data were fitted into both the Lineweaver–Burk and the Michaelis–Menten equation to determine the inhibition mode of the α-glucosidase for each of the COS mixtures.
# The kinetic parameters, i.e., KM, Vmax, and the kinetic constants (Ki and Kii), were determined by fitting the data into the Michaelis–Menten equation [40] using the GraphPad Prism 8.0 software programs (GraphPad Inc., La Jolla, CA, USA) for Windows. The Michaelis–Menten equation, which expresses a relationship between the substrate concentration and the reaction velocity is given as follows:(3) V=Vmax [S]/ KM(1+[I]/Ki)+[S](1+[I]/Kii) where Ki represents the kinetic binding constants of the free enzymes, Kii represents the kinetic binding constant of the enzyme–substrate complex, V represents the velocity, Vmax represents the maximum velocity, KM represents the Michaelis’ constant, [S] represents the substrate concentration, and [I] represents the inhibitor concentration. The α values were calculated to determine the inhibition modes and the inhibitor binding preference.
# Chain of Saccharomyces cerevisiae α-glucosidase (P53341 whole entry): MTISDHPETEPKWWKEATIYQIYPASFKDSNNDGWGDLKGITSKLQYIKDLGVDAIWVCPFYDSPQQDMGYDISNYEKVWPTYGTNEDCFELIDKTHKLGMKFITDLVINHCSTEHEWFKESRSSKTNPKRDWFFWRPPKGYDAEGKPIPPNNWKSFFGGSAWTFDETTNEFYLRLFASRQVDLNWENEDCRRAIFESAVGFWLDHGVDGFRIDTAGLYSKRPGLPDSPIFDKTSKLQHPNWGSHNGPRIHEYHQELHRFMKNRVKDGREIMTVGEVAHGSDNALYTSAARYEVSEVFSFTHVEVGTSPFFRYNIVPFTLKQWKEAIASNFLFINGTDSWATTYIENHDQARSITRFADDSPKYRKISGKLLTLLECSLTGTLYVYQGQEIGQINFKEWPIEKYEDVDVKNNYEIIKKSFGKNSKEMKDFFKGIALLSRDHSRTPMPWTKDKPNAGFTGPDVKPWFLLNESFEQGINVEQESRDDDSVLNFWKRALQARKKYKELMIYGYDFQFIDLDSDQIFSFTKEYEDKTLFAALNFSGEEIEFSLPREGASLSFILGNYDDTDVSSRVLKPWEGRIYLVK
smiles,measurement,value
"C[C@H]1O[C@H](O[C@H]2[C@H](O)[C@@H](O)[C@@H](O[C@H]3[C@H](O)[C@@H](O)C(O)O[C@@H]3CO)O[C@@H]2CO)[C@H](O)[C@@H](O)[C@@H]1N[C@H]1C=C(CO)[C@@H](O)[C@H](O)[C@H]1O (some centres unmarked) [Acarbose, acarbose]",Type of Inhibition,Competitive
same,α value from mixed-mode inhibition,1.86
